# Assay results from patent US11345699B2, “Apoptosis signal-regulating kinase 1 inhibitors and methods of use thereof” (Enanta Pharmaceuticals, Inc., priority 2018, dated 2022).
# Target: ASK1 (Homo sapiens (Human), UniProt Q99683)
# Assay: HTRF KinEASE Assay (TR-FRET), inhibition of ASK1
# Format: biochemical
# Details: ASK1 kinase, 100 μM ATP, 1 μM STK3 peptide substrate, compound 0 to 10 μM
# Description: Assay HTRF® KinEASE™ Assay
# ASK1 was purchased from Thermofisher (Catalogue #PV4011), ATP was purchased from Sigma (Catalogue #A7699), HTRF® KinEASE™ Assay System was obtained from Cisbio (Bedford, Mass.). ½ Area plate was purchased from Perkin Elmer (Catalogue ##6005560). HTRF® KinEASE™-STK is a generic method for measuring serine/threonine kinase activities using a time-resolved fluorescence resonance energy transfer (TR-FRET) immunoassay. The IC50 value for each compound was determined in the presence of compound (various concentration from 0 to 10 μM) and a fixed amount of ATP and peptide substrates. The test compound, 1 μM STK3 peptide substrate, and […] of ASK1 kinase are incubated with kinase reaction buffer containing 50 mM HEPES Ph 7.5, 0.01% BRIJ-35, 10 mM MgCl2, and 1 mM EGTA for 30 minutes. 100 μM ATP is added to start kinase reaction and incubated for 3 hours. The STK3-antibody labeled with Eu^3+-Cryptate and 125 nM streptavidin-XL665 are mixed in a single addition with stop reagents provided by the Cisbio kit used to stop the kinase reaction. Fluorescence is detected using an Envision Multilabeled 2014 reader from PerkinElmer. The Fluorescence is measured at 615 nm (Cryptate) and 665 nm (XL665) and a ratio of 665 nm/615 nm is calculated for each well. The resulting TR-FRET is proportional to the phosphorylation level. Staurosporine was used as the positive control. IC50 was determined by Xlfit 5.3.
# By using above method, the inhibition of ASK1 was evaluated for the compounds of Formula (I). Example numbers correspond to those in Table 5.
# Sequence of ASK1 (Q99683 whole entry): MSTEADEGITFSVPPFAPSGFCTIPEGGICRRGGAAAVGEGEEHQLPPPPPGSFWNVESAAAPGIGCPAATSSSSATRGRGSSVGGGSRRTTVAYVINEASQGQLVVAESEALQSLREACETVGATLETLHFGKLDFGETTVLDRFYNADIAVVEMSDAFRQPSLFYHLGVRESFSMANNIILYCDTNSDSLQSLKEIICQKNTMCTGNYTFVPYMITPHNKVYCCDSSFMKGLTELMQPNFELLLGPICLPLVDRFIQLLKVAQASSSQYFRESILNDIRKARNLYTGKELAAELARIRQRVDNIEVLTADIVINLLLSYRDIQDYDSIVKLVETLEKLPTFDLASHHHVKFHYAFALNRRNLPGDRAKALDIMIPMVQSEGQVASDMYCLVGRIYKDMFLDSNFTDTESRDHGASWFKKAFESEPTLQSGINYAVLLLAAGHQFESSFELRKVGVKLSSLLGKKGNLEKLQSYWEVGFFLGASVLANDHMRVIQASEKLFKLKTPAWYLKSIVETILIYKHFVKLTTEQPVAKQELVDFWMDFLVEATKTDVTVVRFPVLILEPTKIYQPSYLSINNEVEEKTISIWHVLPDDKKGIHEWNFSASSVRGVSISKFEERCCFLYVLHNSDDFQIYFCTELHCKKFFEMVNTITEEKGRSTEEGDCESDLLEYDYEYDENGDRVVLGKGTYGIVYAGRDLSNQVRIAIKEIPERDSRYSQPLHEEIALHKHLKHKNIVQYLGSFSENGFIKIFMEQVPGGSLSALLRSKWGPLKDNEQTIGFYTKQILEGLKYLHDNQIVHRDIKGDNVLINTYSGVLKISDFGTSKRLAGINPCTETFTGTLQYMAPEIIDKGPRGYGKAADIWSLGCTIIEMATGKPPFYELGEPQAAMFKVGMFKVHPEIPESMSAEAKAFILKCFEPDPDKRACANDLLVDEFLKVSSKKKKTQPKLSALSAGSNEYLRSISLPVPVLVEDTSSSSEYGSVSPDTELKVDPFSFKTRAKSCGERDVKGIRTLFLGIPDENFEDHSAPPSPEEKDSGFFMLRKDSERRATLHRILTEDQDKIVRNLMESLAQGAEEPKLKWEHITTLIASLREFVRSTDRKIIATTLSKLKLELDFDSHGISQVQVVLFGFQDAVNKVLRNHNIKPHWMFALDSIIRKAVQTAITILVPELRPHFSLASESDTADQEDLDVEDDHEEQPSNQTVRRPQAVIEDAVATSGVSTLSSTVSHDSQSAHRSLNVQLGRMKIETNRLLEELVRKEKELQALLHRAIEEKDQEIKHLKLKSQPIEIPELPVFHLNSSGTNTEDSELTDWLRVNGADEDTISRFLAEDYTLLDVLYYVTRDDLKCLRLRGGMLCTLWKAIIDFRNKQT
row,IC50 [nM],Compound
1,1.25 to 10,COc1cc2c(cc1C(=O)Nc1cccc(-c3nnnn3[C@H](C)CO)n1)CN(c1ncns1)CC2 [Example 153]
2,10 to 100,CCOC(=O)N1CCc2cnc(C(=O)Nc3cccc(-c4nnnn4[C@H]4CCC[C@@H]4O)n3)cc2C1 [Example 145]
3,1.25 to 10,C[C@H](CO)n1nnnc1-c1cccc(NC(=O)c2cc3c(cn2)CCN(C(=O)C(C)(C)O)C3)n1 [Example 140]
4,< 1.25,"COc1cc2c(cc1C(=O)Nc1cccc(-c3nnnn3[C@H](C)CO)n1)CN(C(=O)OCC(C)(C)O)CC2 [Example 130, 2-hydroxy-2-methylpropyl (R)-7-((6-(1-(1-hydroxypropan-2-yl)-1H-tetrazol-5-yl)pyridin-2-yl)carbamoyl)-6-methoxy-3,4-dihydroisoquinoline-2(1H)-carboxylate]"
5,< 1.25,CONC(=O)N1CCc2cc(OC)c(C(=O)Nc3cccc(-c4nnnn4[C@H](C)CO)n3)cc2C1 [Example 147]
6,1.25 to 10,C[C@H](CO)n1nnnc1-c1cccc(NC(=O)c2cc3c(cc2F)CCN(c2ccccn2)C3)n1 [Example 122]
7,< 1.25,"COc1cc2c(cc1C(=O)Nc1cccc(-c3nnnn3[C@H](C)CO)n1)CN(c1cccnc1)CC2 [Example 150, (R)—N-(6-(1-(1-hydroxypropan-2-yl)-1H-tetrazol-5-yl)pyridin-2-yl)-6-methoxy-2-(pyridin-3-yl)-1,2,3,4-tetrahydroisoquinoline-7-carboxamide]"
8,1.25 to 10,C[C@H](CO)n1nnnc1-c1cccc(NC(=O)c2cc3c(cc2F)CCN(C(=O)NC2CC2)C3)n1 [Example 134]
9,10 to 100,C[C@H](CO)n1nnnc1-c1cccc(NC(=O)c2cc3c(cc2F)CCN(C2CC2)C3)n1 [Example 120]
10,< 1.25,COc1cc2c(cc1C(=O)Nc1cccc(-c3nncn3C(C)C)n1)CN(C(=O)C(C)(C)O)CC2 [Example 129]
11,< 1.25,COc1cc2c(cc1C(=O)Nc1cccc(-c3nncn3C(C)C)n1)CN(C(=O)[C@@H](O)CC(C)C)CC2 [Example 128]

# Second part, the compound before the results:
row,Compound,IC50 [nM]
1,"C[C@H](CO)n1cnnc1-c1cccc(NC(=O)c2cc3c(cn2)CCN(S(=O)(=O)C2CC2)C3)n1 [Example 38, (R)-6-(cyclopropylsulfonyl)-N-(6-(4-(1-hydroxypropan-2-yl)-4H-1,2,4-triazol-3-yl)pyridin-2-yl)-5,6,7,8-tetrahydro-2,6-naphthyridine-3-carboxamide]",10 to 100
2,C[C@H](CO)n1nnnc1-c1cccc(NC(=O)c2cc3c(cc2F)CCN(C(=O)N2CCCCC2)C3)n1 [Example 116],1.25 to 10
3,CCOC(=O)N1CCc2cc(F)c(C(=O)Nc3cccc(-c4nnnn4[C@H](C)CO)n3)cc2C1 [Example 109],1.25 to 10
4,C[C@H](CO)n1nnnc1-c1cccc(NC(=O)c2cc3c(cc2F)CCN(S(=O)(=O)C2CC2)C3)n1 [Example 119],10 to 100
5,COc1cc2c(cc1C(=O)Nc1cccc(-c3nnnn3[C@H](C)CO)n1)CN(C(=O)c1cnccn1)CC2 [Example 112],< 1.25
6,"CC(C)CN1CCc2cnc(C(=O)Nc3cccc(-c4nncn4C(C)C)n3)cc2C1 [Example 3, 6-isobutyl-N-(6-(4-isopropyl-4H-1,2,4-triazol-3-yl)pyridin-2-yl)-5,6,7,8-tetrahydro-2,6-naphthyridine-3-carboxamide]",10 to 100
7,C[C@H](CO)n1nnnc1-c1cccc(NC(=O)c2cc3c(cn2)CCN(C(=O)c2cn(C4CC4)cn2)C3)n1 [Example 106],1.25 to 10
8,C[C@H](CO)n1nnnc1-c1cccc(NC(=O)c2cc3c(cn2)CCN(C(=O)C(C)(C)CO)C3)n1 [Example 99],10 to 100
9,COc1cc2c(cc1C(=O)Nc1cccc(-c3nnnn3[C@H](C)CO)n1)CN(C(=O)c1ccccn1)CC2 [Example 101],< 1.25
10,COc1cc2c(cc1C(=O)Nc1cccc(-c3nnnn3[C@H](C)CO)n1)CN(S(=O)(=O)c1ccccn1)CC2 [Example 104],< 1.25
11,COc1cc2c(cc1C(=O)Nc1cccc(-c3nnnn3[C@H](C)CO)n1)CN(C(=O)[C@](C)(O)C(F)(F)F)CC2 [Example 105],< 1.25
